Experimental data published in US12252524B2, “GIP/GLP1 co-agonist compounds” (Eli Lilly and Company, priority 2018, dated 2025).
Numbered stars: 1 amine (or outer) side, 2 acyl side, 3 side chain; on linkers, the order of the positions; unused ones are H or OH. Square brackets hold non-standard residues; d marks the D form. Side chains are listed from the residue outwards. Peptide text beside a SMILES is read from it. * marks the point of attachment. C20 diacid = O=C(O)CCCCCCCCCCCCCCCCCCC(=O)*; γGlu = O=C(O)[C@H](CCC(=O)[*:2])N[*:1]; αMeL = CC(C)C[C@](C)(N)C(=O)O; AEEA = NCCOCCOCC(=O)O; Aib = CC(C)(N)C(=O)O

Legend:
[1] = target: T1, human Gcg receptor (Homo sapiens, UniProt P47871); experiment: [125I]-Glucagon binding (SPA), human Gcg receptor; conditions: read-out: hGLcgR Ki, nM (SEM, n)
T1 construct: expressed in transfected cells; crude membranes
Method in brief: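 Crude membranes from cells expressing the receptor, prepared by hypotonic lysis in 50 mM Tris HCl pH 7.5 with protease inhibitors, homogenization and differential centrifugation, were used in a WGA-bead SPA. Binding buffer: 25 mM HEPES pH 7.4, 2.5 mM CaCl2, 1 mM MgCl2, bacitracin, Tween-20.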

[2] = target: T2, human GIP receptor (Homo sapiens, UniProt P48546); experiment: [125I]-GIP binding (SPA), human GIP receptor; conditions: read-out: hGIPR Ki, nM (SEM, n)
T2 construct: expressed in transfected cells; crude membranes
T2 sequence (P48546 22-466): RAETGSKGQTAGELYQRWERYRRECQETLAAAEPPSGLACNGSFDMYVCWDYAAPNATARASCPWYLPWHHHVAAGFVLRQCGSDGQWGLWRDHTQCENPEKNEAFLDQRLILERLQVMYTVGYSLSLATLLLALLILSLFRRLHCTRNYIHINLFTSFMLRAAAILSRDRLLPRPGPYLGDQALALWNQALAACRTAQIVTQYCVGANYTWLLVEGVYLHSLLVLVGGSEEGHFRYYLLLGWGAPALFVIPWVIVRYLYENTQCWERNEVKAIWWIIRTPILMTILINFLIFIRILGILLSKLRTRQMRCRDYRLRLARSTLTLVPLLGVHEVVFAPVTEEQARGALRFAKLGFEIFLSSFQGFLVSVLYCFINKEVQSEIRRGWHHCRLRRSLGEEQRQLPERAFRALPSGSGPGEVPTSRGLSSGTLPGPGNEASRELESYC

[3] = target: human GLP-1R (Homo sapiens, UniProt P43220); experiment: [125I]-GLP-1 binding (SPA), human GLP-1 receptor; design: expressed in transfected cells; crude membranes; conditions: read-out: hGLP1R Ki, (nM) (SEM, n)
Method in brief: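 Membranes: hypotonic lysis (50 mM Tris HCl, pH 7.5, protease inhibitors), Potter-Elvehjem homogenization, high-speed pellet (35000×g 1 h or 25000×g 30 min, 4° C.). Buffer: 25 mM HEPES pH 7.4, 2.5 mM CaCl2, 1 mM MgCl2. Four-parameter IC50 fit; Ki as geometric mean ± SEM.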

[4] = target: T3, gastric inhibitory peptide receptor (GIPR) (Homo sapiens, UniProt P48546); experiment: cAMP pharmacological functional assay in presence of casein, hGIPR; format: cell-based; conditions: HEK293 cells expressing hGIPR, 0.1% Casein, geometric mean; read-out: hGIPR cAMP Rel EC50 nM (SEM, n)
T3 sequence (P48546 22-466): T2 sequence (P48546 22-466)

[5] = target: human GLP-1 receptor (GLP-1R) (Homo sapiens, UniProt P43220); experiment: cAMP pharmacological functional assay in presence of casein, hGLP-1R; format: cell-based; conditions: HEK293 cells expressing hGLP-1R, 0.1% Casein, geometric mean; read-out: hGLP1R cAMP Rel EC50 nM (SEM, n)
Sequence of human GLP-1 receptor (GLP-1R) (P43220 24-463): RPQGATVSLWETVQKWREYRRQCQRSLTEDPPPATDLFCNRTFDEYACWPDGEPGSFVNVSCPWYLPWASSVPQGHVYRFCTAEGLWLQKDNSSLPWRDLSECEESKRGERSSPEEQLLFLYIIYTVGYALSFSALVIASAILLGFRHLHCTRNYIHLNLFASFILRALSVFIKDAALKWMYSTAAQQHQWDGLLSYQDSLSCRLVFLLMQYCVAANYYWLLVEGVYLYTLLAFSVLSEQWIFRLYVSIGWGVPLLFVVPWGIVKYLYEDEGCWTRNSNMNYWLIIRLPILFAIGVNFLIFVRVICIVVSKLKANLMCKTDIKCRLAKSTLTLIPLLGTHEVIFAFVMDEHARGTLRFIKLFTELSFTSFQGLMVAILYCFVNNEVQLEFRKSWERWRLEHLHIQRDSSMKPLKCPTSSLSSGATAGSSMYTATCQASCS

T1 sequence (P47871 26-477): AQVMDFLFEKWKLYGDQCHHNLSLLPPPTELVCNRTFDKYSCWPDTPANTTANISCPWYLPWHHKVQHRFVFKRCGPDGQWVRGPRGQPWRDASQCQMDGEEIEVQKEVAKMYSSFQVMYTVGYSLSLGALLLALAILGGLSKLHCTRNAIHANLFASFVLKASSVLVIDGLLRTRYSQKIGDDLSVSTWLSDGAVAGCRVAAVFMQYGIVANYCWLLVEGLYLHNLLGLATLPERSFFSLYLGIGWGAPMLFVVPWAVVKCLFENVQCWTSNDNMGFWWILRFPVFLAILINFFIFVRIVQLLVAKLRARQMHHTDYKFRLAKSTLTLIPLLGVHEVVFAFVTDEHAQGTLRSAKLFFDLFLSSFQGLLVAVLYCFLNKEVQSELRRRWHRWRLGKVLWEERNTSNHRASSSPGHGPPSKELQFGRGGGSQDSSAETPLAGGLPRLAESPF
Sequence of human GLP-1R (P43220 24-463): as the sequence (P43220 24-463) above

SMILES	Ki [1] [nM]	Ki [2] [nM]	Ki [3] [nM]	EC50 [4] [nM]	EC50 [5] [nM]
CC[C@H](C)[C@H](NC(=O)[C@H](CC(C)C)NC(=O)[C@H](Cc1ccc(O)cc1)NC(=O)[C@H](CCC(=O)O)NC(=O)[C@@H](NC(=O)[C@H](Cc1ccccc1)NC(=O)[C@H](C)NC(=O)C(C)(C)NC(=O)[C@H](CCC(N)=O)NC(=O)[C@H](C)NC(=O)[C@H](CCCCNC(=O)COCCOCCNC(=O)COCCOCCNC(=O)CC[C@H](NC(=O)CCCCCCCCCCCCCCCCCCC(=O)O)C(=O)O)NC(=O)[C@H](CCCCN)NC(=O)[C@H](CC(=O)O)NC(=O)[C@H](CC(C)C)NC(=O)[C@H](CC(C)C)NC(=O)[C@@H](NC(=O)[C@H](CO)NC(=O)[C@H](Cc1ccc(O)cc1)NC(=O)[C@H](CC(=O)O)NC(=O)[C@H](CO)NC(=O)[C@@H](NC(=O)[C@H](Cc1ccccc1)NC(=O)[C@@H](NC(=O)CNC(=O)[C@H](CCC(=O)O)NC(=O)C(C)(C)NC(=O)[C@@H](N)Cc1ccc(O)cc1)[C@@H](C)O)[C@@H](C)O)[C@@H](C)CC)[C@@H](C)CC)C(=O)N[C@@H](CCC(=O)O)C(=O)NCC(=O)NCC(N)=O [Example 51] (H-Y[Aib]EGTFTSDYSILLDKK([AEEA-AEEA-γGlu-C20 diacid])AQ[Aib]AFIEYLIEGG-NH2)	195	0.062	5.62	0.096	0.153
CC[C@H](C)[C@H](NC(=O)[C@H](CC(C)C)NC(=O)[C@H](Cc1ccc(O)cc1)NC(=O)[C@H](CCC(=O)O)NC(=O)[C@@H](NC(=O)[C@H](Cc1ccccc1)NC(=O)[C@H](C)NC(=O)C(C)(C)NC(=O)[C@H](CCC(N)=O)NC(=O)[C@H](C)NC(=O)[C@H](CCCCNC(=O)COCCOCCNC(=O)COCCOCCNC(=O)CC[C@H](NC(=O)CCCCCCCCCCCCCCCCCCC(=O)O)C(=O)O)NC(=O)[C@H](CO)NC(=O)[C@H](CC(=O)O)NC(=O)[C@H](CC(C)C)NC(=O)[C@](C)(CC(C)C)NC(=O)[C@@H](NC(=O)[C@H](CO)NC(=O)[C@H](Cc1ccc(O)cc1)NC(=O)[C@H](CC(=O)O)NC(=O)[C@H](CO)NC(=O)[C@@H](NC(=O)[C@H](Cc1ccccc1)NC(=O)[C@@H](NC(=O)CNC(=O)[C@H](CCC(=O)O)NC(=O)C(C)(C)NC(=O)[C@@H](N)Cc1ccc(O)cc1)[C@@H](C)O)[C@@H](C)O)[C@@H](C)CC)[C@@H](C)CC)C(=O)N[C@@H](CCC(=O)O)C(=O)NCC(=O)NCC(=O)N1CCC[C@H]1C(=O)N[C@@H](CO)C(=O)N[C@@H](CO)C(=O)NCC(=O)N[C@@H](C)C(=O)N1CCC[C@H]1C(=O)N1CCC[C@H]1C(=O)N1CCC[C@H]1C(=O)N[C@@H](CO)C(N)=O [Example 52] (H-Y[Aib]EGTFTSDYSI[αMeL]LDSK([AEEA-AEEA-γGlu-C20 diacid])AQ[Aib]AFIEYLIEGGPSSGAPPPS-NH2)	> 1100	0.0342	5.81	0.0997	0.132
CC[C@H](C)[C@H](NC(=O)[C@H](CC(C)C)NC(=O)[C@H](Cc1ccc(O)cc1)NC(=O)[C@H](CCC(=O)O)NC(=O)[C@@H](NC(=O)[C@H](Cc1ccccc1)NC(=O)[C@H](C)NC(=O)C(C)(C)NC(=O)[C@H](CCC(N)=O)NC(=O)[C@H](C)NC(=O)[C@H](CCCCNC(=O)COCCOCCNC(=O)COCCOCCNC(=O)CC[C@H](NC(=O)CCCCCCCCCCCCCCCCCCC(=O)O)C(=O)O)NC(=O)[C@H](CCCCN)NC(=O)[C@H](CC(=O)O)NC(=O)[C@H](CC(C)C)NC(=O)[C@](C)(CC(C)C)NC(=O)[C@@H](NC(=O)[C@H](CO)NC(=O)[C@H](Cc1ccc(O)cc1)NC(=O)[C@H](CC(=O)O)NC(=O)[C@H](CO)NC(=O)[C@@H](NC(=O)[C@H](Cc1ccccc1)NC(=O)[C@@H](NC(=O)CNC(=O)[C@H](CCC(=O)O)NC(=O)C(C)(C)NC(=O)[C@@H](N)Cc1c[nH]cn1)[C@@H](C)O)[C@@H](C)O)[C@@H](C)CC)[C@@H](C)CC)C(=O)N[C@@H](CCC(=O)O)C(=O)NCC(=O)NCC(=O)N1CCC[C@H]1C(=O)N[C@@H](CO)C(=O)N[C@@H](CO)C(=O)NCC(=O)N[C@@H](C)C(=O)N1CCC[C@H]1C(=O)N1CCC[C@H]1C(=O)N1CCC[C@H]1C(=O)N[C@@H](CO)C(N)=O [Example 53] (H-H[Aib]EGTFTSDYSI[αMeL]LDKK([AEEA-AEEA-γGlu-C20 diacid])AQ[Aib]AFIEYLIEGGPSSGAPPPS-NH2; N-terminus assumed)	216	0.188	1.23	0.628	0.0339
CC[C@H](C)[C@H](NC(=O)[C@H](CC(C)C)NC(=O)[C@H](Cc1ccc(O)cc1)NC(=O)[C@H](CCC(=O)O)NC(=O)[C@@H](NC(=O)[C@H](Cc1ccccc1)NC(=O)[C@H](C)NC(=O)[C@H](Cc1c[nH]cn1)NC(=O)[C@H](CCC(N)=O)NC(=O)[C@H](C)NC(=O)[C@H](CCCCNC(=O)COCCOCCNC(=O)COCCOCCNC(=O)CC[C@H](NC(=O)CCCCCCCCCCCCCCCCCCC(=O)O)C(=O)O)NC(=O)[C@H](CCCCN)NC(=O)[C@H](CC(=O)O)NC(=O)[C@H](CC(C)C)NC(=O)[C@](C)(CC(C)C)NC(=O)[C@@H](NC(=O)[C@H](CO)NC(=O)[C@H](Cc1ccc(O)cc1)NC(=O)[C@H](CC(=O)O)NC(=O)[C@H](CO)NC(=O)[C@@H](NC(=O)[C@H](Cc1ccccc1)NC(=O)[C@@H](NC(=O)CNC(=O)[C@H](CCC(=O)O)NC(=O)C(C)(C)NC(=O)[C@@H](N)Cc1c[nH]cn1)[C@@H](C)O)[C@@H](C)O)[C@@H](C)CC)[C@@H](C)CC)C(=O)N[C@@H](CCC(=O)O)C(=O)NCC(=O)NCC(=O)N1CCC[C@H]1C(=O)N[C@@H](CO)C(=O)N[C@@H](CO)C(=O)NCC(=O)N[C@@H](C)C(=O)N1CCC[C@H]1C(=O)N1CCC[C@H]1C(=O)N1CCC[C@H]1C(=O)N[C@@H](CO)C(N)=O [Example 54] (H-H[Aib]EGTFTSDYSI[αMeL]LDKK([AEEA-AEEA-γGlu-C20 diacid])AQHAFIEYLIEGGPSSGAPPPS-NH2)	333	0.965	1.66	1.57	0.0242
CC[C@H](C)[C@H](NC(=O)[C@H](CC(C)C)NC(=O)[C@H](Cc1ccc(O)cc1)NC(=O)[C@H](CCC(=O)O)NC(=O)[C@@H](NC(=O)[C@H](Cc1ccccc1)NC(=O)[C@H](C)NC(=O)[C@H](Cc1c[nH]cn1)NC(=O)[C@H](CCC(N)=O)NC(=O)[C@H](C)NC(=O)[C@H](CCCCNC(=O)COCCOCCNC(=O)COCCOCCNC(=O)CC[C@H](NC(=O)CCCCCCCCCCCCCCCCCCC(=O)O)C(=O)O)NC(=O)[C@H](CCC(=O)O)NC(=O)[C@H](CC(=O)O)NC(=O)[C@H](CC(C)C)NC(=O)[C@](C)(CC(C)C)NC(=O)[C@@H](NC(=O)[C@H](CO)NC(=O)[C@H](Cc1ccc(O)cc1)NC(=O)[C@H](CC(=O)O)NC(=O)[C@H](CO)NC(=O)[C@@H](NC(=O)[C@H](Cc1ccccc1)NC(=O)[C@@H](NC(=O)CNC(=O)[C@H](CCC(=O)O)NC(=O)C(C)(C)NC(=O)[C@@H](N)Cc1c[nH]cn1)[C@@H](C)O)[C@@H](C)O)[C@@H](C)CC)[C@@H](C)CC)C(=O)N[C@@H](CCC(=O)O)C(=O)NCC(=O)NCC(=O)N1CCC[C@H]1C(=O)N[C@@H](CO)C(=O)N[C@@H](CO)C(=O)NCC(=O)N[C@@H](C)C(=O)N1CCC[C@H]1C(=O)N1CCC[C@H]1C(=O)N1CCC[C@H]1C(=O)N[C@@H](CO)C(N)=O [Example 55] (H-H[Aib]EGTFTSDYSI[αMeL]LDEK([AEEA-AEEA-γGlu-C20 diacid])AQHAFIEYLIEGGPSSGAPPPS-NH2)	> 1100	6.24	7.29	5.45	0.0286
